The test system of assay [1] is Brassica napus microspores. Briefly: Microspore embryogenesis in liquid half-strength NLN medium with different osmotica. In kind it is cell-based, Brassica napus L. cv. Topas. The settings on record: for Induction of MD embryos: within two weeks, 13% sucrose, 8% mannitol or 25% PEG 4000 (w/v), mannitol and PEG media with about 0.08%-0.1% sucrose. As for the experimental part:
A mixed population consisting of microspores from mid- and late-uninucleate stages to young bicellular pollen was isolated from the flower buds using a protocol modified from that described by Ferrie and Keller, in: Gamborg and Phillips (eds) Plant Cell, Tissue and Organ Culture, Fundamental methods, pp 155-164, 1993 (Springer Verlag). For each treatment, twelve surface-sterilized buds (3.6-4.2 mm in length) were macerated in 5 ml half-strength B5 washing medium (Gamborg et al., Exp. Cell Res. 50:151-158, 1968) containing 13% sucrose (w/v) in 50 ml beakers. The crude suspension was filtered through 44 μm Nytex nylon mesh, both beakers and meshes were rinsed, and a total of 20 ml was collected into 50 ml centrifuge tubes and centrifuged at 150×g for 3 minutes. The pellets were resuspended in 5 ml of washing medium, the washing procedure was repeated twice, and the final supernatant was carefully pipetted out, leaving the pellet in approximately 0.3-0.4 ml of washing medium. Final resuspension was done by adding filter-sterilized half-strength NLN medium (Lichter, Z. Pflanzenphysiol. 105:427-434, 1982) containing 13% (w/v) sucrose as the control treatment; in the other two treatments, ½ NLN sucrose-free medium with 8% (w/v) mannitol or 25% (w/v) PEG 4000 (Fluka Chemika) was added, respectively. Therefore, the ½ NLN-mannitol and -PEG media contained only about 0.08%-0.1% sucrose, remaining from the washing medium.
Aliquots of […] of microspore suspension were plated into 10×15 mm sterile petri dishes, with an approximate plating density of 40,000 microspores/ml. Plates were first incubated at 35° C. for one hour followed by 33° C. for the next 14-18 hours and then placed on a shaker (50 rpm) in the dark at 24° C. for 14 days. During the first 8 days in culture, PEG and mannitol media were gradually diluted by adding to the plates an adequate volume of a simple ½ NLN medium, containing no sucrose. mannitol, or PEG, to give a final concentration of approximately 22% PEG and 7% mannitol. The concentration of sucrose in the control treatment was lowered the same way to a final concentration of 11%. After two weeks, plates with MD embryos were placed under light (16/8 hours photoperiod) at 24° C. for an additional week. Experiments dealing with mannitol as osmoticum were repeated three times with five replicates, while experiments dealing with PEG and sucrose as a control were repeated at least ten times with a minimum of three replicates.
Microspores at late unicellular stage and young bicellular pollen were isolated from the flower buds using a protocol for Brassica napus, modified from that described by Ferrie and Keller, in: Gamborg and Phillips (eds) Plant Cell, Tissue and Organ Culture, Fundamental methods, pp 155-164, 1993 (Springer Verlag). Twelve surface-sterilized buds (3.6-4.2 mm in length) were macerated in a 50 ml beaker with 5 ml half-strength B5 washing medium (Gamborg et al., Exp. Cell Res. 50:151-158, 1968) containing 13% sucrose (w/v). The crude suspension was filtered through 44 μm nylon mesh and centrifuged at 150×g for 3 minutes, and the pellet was resuspended in 5 ml of washing medium. The washing procedure was repeated twice, and the final supernatant was carefully pipetted out, leaving the pellet in approximately 0.3-0.4 ml of washing medium. Final resuspension was done by adding filter-sterilized half-strength NLN medium (Lichter, Z. Pflanzenphysiol 105:427-434, 1982) containing either 13% sucrose (w/v) as a control or 25% (w/v) polyethylene glycol 4000 (Fluka Chemika). Therefore, the final ½ NLN-PEG medium contained only about 0.08%-0.1% sucrose, remaining from the washing medium.
Aliquots of 10 ml of the microspore suspension were plated into 10×15 mm sterile petri dishes, with an approximate plating density of 40,000 microspores/ml. Plates were first incubated at 35° C. for one hour followed by 33° C. for the next 14-18 hours and then placed on a shaker (50 rpm) in the dark at 24° C. for 14 days. […]

The test system of assay [2] is Brassica napus MD embryos. Nature of the assay: Conversion of three-week-old MD embryos into plantlets on hormone-free solid medium. Type of assay: cell-based. The following applies: embryos grown on the named osmoticum. Here is the method:
Plates containing the embryos may then be placed under light at 24° C. for an additional week. Once placed under light, the embryos generally increase in size and become green quickly. Within one week under light, cotyledons are typically well-developed, often widely opened and dark green, and the embryos are morphologically similar to zygotic embryos dissected from ovules (see FIGS. 2A-2C). The three-week embryos may then be rinsed and transferred to culture containers containing a suitable medium, such as half-strength B5 medium containing 1% sucrose and no growth regulators. The conversion frequency is the percentage of MD embryos that develop roots, true leaves and a green color within 3-4 weeks. Aliquots of 10 ml of the microspore suspension were plated into 10×15 mm sterile petri dishes, with an approximate plating density of 40,000 microspores/ml. Plates were first incubated at 35° C. for one hour followed by 33° C. for the next 14-18 hours and then placed on a shaker (50 rpm) in the dark at 24° C. for 14 days. […] Conversion frequency (%) of sucrose- and PEG-cultured MD embryos was recorded based on presence of roots, appearance of first true leaves and green color of plantlets, with three replicates for each treatment.

The values that follow come from patent publication US20070292951A1, “MEDIA AND METHODS FOR CULTURING PLANT EMBRYOS” (priority 1997, published 2007).

Consider `OC[C@@H](O)[C@@H](O)[C@H](O)[C@H](O)CO` [mannitol], for which the “Cell divisions of microspores after heat shock treatment” value in assay [1] (mannitol solution) is “no divisions were observed”. Also, the “Induction of MD embryos” value in assay [1] was “yielded no embryos”.

On to `OC[C@H]1O[C@@](CO)(O[C@H]2O[C@H](CO)[C@@H](O)[C@H](O)[C@H]2O)[C@@H](O)[C@@H]1O` [sucrose], for which, in assay [1] (SEM), the “Embryo length at heart-shaped stage” value was “approximately 300 μm” and the “Embryo length at torpedo stage” value is at least 400 μm. In addition, the “Proembryo size at globular-to-heart-shaped transition” value in assay [1] (about day 8, SEM) was 150-250 μm. Moreover, the “Embryo length, cotyledonary stage” value in assay [1] (after two weeks in culture) was 2-4 mm. The “Starch grains and protein bodies in cotyledon stage embryos” value in assay [1] (light microscopy) is recorded as “abundant starch grains with no protein bodies”. Moreover, the “Morphology of three-week-old MD embryos compared with zygotic embryos (14 and 15 DPA)” value in assay [1] (three weeks, last week under light) is “pale green, had elongated embryo axes and relatively small underdeveloped cotyledons”. Also, in assay [1], the “Induction of MD embryos” value is listed as “developed into embryos”. The “Plantlet morphology after transfer to solid medium” value in assay [2] is “hypocotyls were short, often thick (hyperhydrated) and aberrant”.
